Data from EP4168396B1, “COMPOUNDS FOR THE TREATMENT OF NEURODEGENERATIVE DISEASES” (Universite De Franche Comte, priority 2020, dated 2021).
Like-named read-outs stand apart in the source and are kept apart here.

Assays:
human H3 receptor = target: T1, human H3 receptor (Homo sapiens, UniProt Q9Y5N1); assay: H3 Receptor Binding Assay (radioligand binding); settings: membranes from CHO-K1 cells, [3H]-N-α-methylhistamine 1.0 nM; read-out: H3R Ki [nM] ± SEM
T1 construct: expressed in transfected cells; host or cells: CHO-K1
Method: 10 mM stock solutions of compounds to be tested were prepared in DMSO.
Radioligand binding was performed using membranes from CHO-K1 cells stably transfected with the human H3 receptor. All assays were carried out in duplicates. 50 µl working solution of the tested compounds, 50 µl [3H]-N-α-methylhistamine (spec. act. 82.9 Ci/mmol, final concentration 1.0 nM) and 150 µl diluted membranes (15 µg protein per well) prepared in assay buffer (50 mM Tris, pH 7.4, 5 mM MgCl2) were transferred to polypropylene 96-well microplate using 96-wells pipetting station Rainin Liquidator (MettlerToledo). […] Microplate was covered with a sealing tape, mixed and incubated for 60 minutes at 27°C. The reaction was terminated by rapid filtration through GF/B filter mate presoaked with 0.5% polyethyleneimine for 30 minutes. Five rapid washes with 300 µl 50 mM Tris buffer (4°C, pH 7.4) were performed using 96-well FilterMate harvester (PerkinElmer, USA). The filter mates were dried at 37°C in forced air fan incubator and then solid scintillator MeltiLex was melted on filter mates at 90°C for 4 minutes. Radioactivity was counted in MicroBeta2 scintillation counter (PerkinElmer). Data were fitted to a one-site curve-fitting equation with Prism 5 (GraphPad Software) and Ki values were estimated from the Cheng-Prusoff equation.

[1] = target: T2, human recombinant acetylcholinesterase (hAChE) (Homo sapiens, UniProt P22303); assay: Cholinesterase inhibition assay (Ellman), hAChE; type: biochemical
T2 construct: purchased Sigma-Aldrich
Method: Inhibitory activities of the test compounds against the human cholinesterases were measured using the spectrophotometric method described by Ellman et al.^4, as modified for 96-well microplates. 5,5'-Dithiobis-(2-nitrobenzoic acid) (DTNB), acetylthiocholine iodide (ATC), butyrylthiocholine iodide (BTC), and human recombinant acetylcholinesterase (hAChE) were purchased from Sigma-Aldrich. Human butyrylcholinesterase (hBuChE) isolated from human plasma was from Vivonics (Bedford, MA, USA). […] In the first step of Ellman's method 25 µL of the test compound (or mixture DMSO/water in appropriate ratio; i.e. blank samples) was incubated in 0.1 M phosphate buffer (200 µL, pH= 8.0) with DTNB (20 µL; 0.0025M) and the enzyme (20 µL; hAChE or hBuChE) in temperature 36 °C. […] All compounds were tested at screening concentration of 10 µM. Percent of inhibition was calculated from 100-(S/B)×100, where S and B were the respective enzyme activities with and without the test sample, respectively. […] All reactions were performed in triplicate. The IC50 values were calculated using nonlinear regression (GraphPad Prism 5 [GraphPad Software, San Diego California USA 5.00]) by plotting the residual enzyme activities against the applied inhibitor concentration. Tacrine was used as a reference compound.

[2] = target: T3, Human butyrylcholinesterase (hBuChE) (Homo sapiens, UniProt P06276); assay: Cholinesterase inhibition assay (Ellman), hBuChE; type: biochemical
T3 construct: Human butyrylcholinesterase (hBuChE) isolated from human plasma was from Vivonics; purchased Vivonics (Bedford, MA, USA); host or cells: human plasma
Method: Inhibitory activities of the test compounds against the human cholinesterases were measured using the spectrophotometric method described by Ellman et al.^4, as modified for 96-well microplates. 5,5'-Dithiobis-(2-nitrobenzoic acid) (DTNB), acetylthiocholine iodide (ATC), butyrylthiocholine iodide (BTC), and human recombinant acetylcholinesterase (hAChE) were purchased from Sigma-Aldrich. Human butyrylcholinesterase (hBuChE) isolated from human plasma was from Vivonics (Bedford, MA, USA). […] The stock solutions of the test compounds were prepared by dissolving in DMSO to obtain a concentration of 0.0034M. They were further diluted in water to give appropriate concentration in a well. In the first step of Ellman's method 25 µL of the test compound (or mixture DMSO/water in appropriate ratio; i.e. blank samples) was incubated in 0.1 M phosphate buffer (200 µL, pH= 8.0) with DTNB (20 µL; 0.0025M) and the enzyme (20 µL; hAChE or hBuChE) in temperature 36 °C. […] All compounds were tested at screening concentration of 10 µM. Percent of inhibition was calculated from 100-(S/B)×100, where S and B were the respective enzyme activities with and without the test sample, respectively. […] All reactions were performed in triplicate. The IC50 values were calculated using nonlinear regression (GraphPad Prism 5 [GraphPad Software, San Diego California USA 5.00]) by plotting the residual enzyme activities against the applied inhibitor concentration. Tacrine was used as a reference compound.

Human recombinant GSK-3β = target: T4, Human recombinant GSK-3β (Homo sapiens, UniProt P49841); assay: GSK-3β inhibition in vitro assay (Kinase-Glo luminescence); type: biochemical
T4 construct: purchased Millipore (Millipore Iberica S.A.U.)
Method: Human recombinant GSK-3β, prephosphorylated polypeptide substrate and white 96-well plates were purchased from Millipore (Millipore Iberica S.A.U.). Kinase-Glo Luminescent Kinase Assay was obtained from Promega (Promega Biotech Iberica, SL). Adenosinetriphosphate (ATP) and all other reagents were from Sigma-Aldrich. Assay buffer contained 50 mM 4-(2-hydroxyethyl)-1- piperazineethanesulfonic acid (HEPES) (pH 7.5), 1 mM ethylenediaminetetraacetic acid (EDTA), 1 mM ethylene glycol tetraacetic acid (EGTA), and 15 mM magnesium acetate. The in solution experiments for GSK-3β inhibition analysis were performed by following the method developed by Baki et al.^18. In a typical assay, 10 µL of test compound (dissolved in DMSO at 1 mM concentration and diluted in advance in assay buffer to the desired concentration) and 10 µL (20 ng) of enzyme were added to each well in presence of 20 µL of assay buffer containing GSM substrate and ATP in order to reach a 25 µM and 1 µM final concentration respectively. […] After a 30 min incubation time at 30 °C, the enzymatic reaction was stopped by adding 40 µL of Kinase-Glo reagent. Glow-type luminescence was recorded after 10 min using a VictorX 3 PerkinElmer plate reader. […]. The linear regression parameters were determined and the IC50 extrapolated (GraphPad Prism 4.0, GraphPad Software Inc.).

[3] = system: voltage-gated Ca^2+ channels (VGCC); assay: Calcium channel antagonist assay (cytosolic Ca2+, Fluo-4); type: cell-based; settings: SH-SY5Y cells, K+ 70 mM
Method: The cytosolic Ca2+ has been measured in SH-SY5Y cells. SH-SY5Y cells were maintained similarly to what was previously described56. Free cytosolic Ca2+ was measured using the fluorescent Ca2+ indicator Fluo-4/AM (Fluo-4 acetomethoxyester). SH-SY5Y cells were seeded onto 96-well black plates at a density of 10^5 cells per well, achieving confluence after 48 h. Cells were washed with Krebs-Hepes solution (KH, in mM: 144 NaCl, 5.9 KCl, 1.2 MgCl2, 2 CaCl2, 11 D-glucose, 10 HEPES, pH 7.4). Cells were loaded with 10 µM Fluo-4/AM and 0.2% pluronic acid in KH and incubated for 45 min at 37 °C in the dark. Then, cells were washed twice with KH to remove the excess of probe. Tested compounds were incubated 10 min before K+ 70 mM was applied to evoke the increment of cytosolic Ca2+. To normalize Fluo-4 signals, Triton X-100 (5%) and 1 M MnCl2 were applied to register both maximal and minimal fluorescence, respectively. The experiments were analyzed at excitation and emission wavelengths of 485 and 520 nm, respectively, and fluorescence was measured in a fluorescence microplate reader (FLUOstar Optima, BMG, Germany). Data were calculated as a percentage of Fmax - Fmin.
The blocking effect of the depolarization-induced Ca^2+ uptake was investigated in SH-SY5Y neuroblastoma cells stimulated with an extracellular concentration of K^+ 70 mM, which induces the cell Ca^2+ levels elevation by opening voltage-gated Ca^2+ channels (VGCC), monitored with the Ca^2+-sensitive fluorescent dye Fluo-4. Nimodipine was used as positive standard.

[4] = read-out: cholinesterases inhibition

T2 sequence (P22303 32-614): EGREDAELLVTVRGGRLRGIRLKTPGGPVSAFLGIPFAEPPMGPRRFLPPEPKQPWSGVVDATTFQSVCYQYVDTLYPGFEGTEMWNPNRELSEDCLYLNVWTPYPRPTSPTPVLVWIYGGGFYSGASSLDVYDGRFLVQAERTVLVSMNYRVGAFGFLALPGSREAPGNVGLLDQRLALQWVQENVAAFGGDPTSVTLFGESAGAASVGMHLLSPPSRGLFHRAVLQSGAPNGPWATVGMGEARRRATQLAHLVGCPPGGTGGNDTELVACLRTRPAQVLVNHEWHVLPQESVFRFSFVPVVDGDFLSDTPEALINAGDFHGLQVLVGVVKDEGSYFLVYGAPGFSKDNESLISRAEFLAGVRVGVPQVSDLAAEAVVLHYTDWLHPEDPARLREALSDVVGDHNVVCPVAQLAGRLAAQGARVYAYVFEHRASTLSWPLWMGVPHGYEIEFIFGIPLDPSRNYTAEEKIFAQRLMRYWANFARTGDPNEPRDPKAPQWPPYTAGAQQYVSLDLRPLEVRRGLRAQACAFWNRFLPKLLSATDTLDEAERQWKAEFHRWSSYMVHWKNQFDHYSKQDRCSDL
T1 sequence (Q9Y5N1 whole entry): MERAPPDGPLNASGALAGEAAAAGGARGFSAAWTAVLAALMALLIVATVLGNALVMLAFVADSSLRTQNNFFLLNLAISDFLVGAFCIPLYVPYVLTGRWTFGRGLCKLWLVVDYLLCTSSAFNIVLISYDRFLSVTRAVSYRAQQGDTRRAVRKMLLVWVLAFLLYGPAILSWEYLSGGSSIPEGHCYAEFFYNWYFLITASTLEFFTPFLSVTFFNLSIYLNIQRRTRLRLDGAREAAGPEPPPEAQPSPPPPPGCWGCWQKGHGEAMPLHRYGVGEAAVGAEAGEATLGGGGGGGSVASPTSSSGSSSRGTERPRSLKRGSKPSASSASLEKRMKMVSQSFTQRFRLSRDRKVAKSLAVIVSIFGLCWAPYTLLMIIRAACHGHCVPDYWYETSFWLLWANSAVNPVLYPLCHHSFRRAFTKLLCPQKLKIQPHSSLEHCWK
T3 sequence (P06276 29-602): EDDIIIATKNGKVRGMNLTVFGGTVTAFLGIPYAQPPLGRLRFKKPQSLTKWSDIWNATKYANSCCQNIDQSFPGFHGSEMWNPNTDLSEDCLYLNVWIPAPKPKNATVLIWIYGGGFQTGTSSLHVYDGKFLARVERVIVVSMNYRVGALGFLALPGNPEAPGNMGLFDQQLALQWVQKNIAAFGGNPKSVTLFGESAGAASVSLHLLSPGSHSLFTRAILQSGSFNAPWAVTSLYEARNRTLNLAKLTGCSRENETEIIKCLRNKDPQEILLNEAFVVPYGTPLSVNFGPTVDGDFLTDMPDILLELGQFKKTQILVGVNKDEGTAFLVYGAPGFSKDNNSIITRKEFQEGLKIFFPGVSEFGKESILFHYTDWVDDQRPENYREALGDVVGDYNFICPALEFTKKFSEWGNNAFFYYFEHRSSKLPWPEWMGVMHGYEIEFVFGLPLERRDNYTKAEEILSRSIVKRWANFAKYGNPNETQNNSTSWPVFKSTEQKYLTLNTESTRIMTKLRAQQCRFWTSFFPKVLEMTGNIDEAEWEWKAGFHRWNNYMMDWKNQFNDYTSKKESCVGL
T4 sequence (P49841 whole entry): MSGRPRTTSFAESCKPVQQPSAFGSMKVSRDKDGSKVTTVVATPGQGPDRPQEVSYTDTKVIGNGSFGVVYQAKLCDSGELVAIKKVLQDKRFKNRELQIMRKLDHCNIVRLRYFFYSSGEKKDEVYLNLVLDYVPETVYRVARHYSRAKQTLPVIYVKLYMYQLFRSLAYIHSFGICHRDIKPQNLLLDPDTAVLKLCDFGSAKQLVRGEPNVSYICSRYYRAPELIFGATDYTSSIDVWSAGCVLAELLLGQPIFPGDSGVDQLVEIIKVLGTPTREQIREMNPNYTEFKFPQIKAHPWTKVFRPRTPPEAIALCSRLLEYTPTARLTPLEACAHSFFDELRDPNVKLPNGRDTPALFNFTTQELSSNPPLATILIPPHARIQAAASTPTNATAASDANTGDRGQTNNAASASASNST

SMILES | Ki (human H3 receptor) [nM] | IC50 [1, 4] [nM] | IC50 ([1]; read-out: hAChE IC50) [nM] | IC50 [2] [nM] | IC50 (Human recombinant GSK-3β; read-out: Gsk3β IC50) [nM] | Calcium Channel % inhibition at 10µM [3] [%] | IC50 (Human recombinant GSK-3β) [nM]
CCOC(=O)C1=C(C)N(CCC2CCN(Cc3ccccc3)CC2)C(=O)NC1c1ccc(OCCCCN2CCCC2)cc1 (stereo not drawn) [BIGI-BIH-D1, Ethyl 1-(2-(1-benzylpiperidin-4-yl)ethyl)-6-methyl-2-oxo-4-(4-(4-(pyrrolidin-1-yl)butoxy)phenyl)-1,2,3,4-tetrahydropyrimidine-5-carboxylate] | 2.8 ± 0.2 | 63 | 63 ± 1 | 1720 ± 119 | 59800 | 5 | 
CCOC(=O)C1=C(C)N(CCC2CCN(Cc3ccccc3)CC2)C(=O)NC1c1ccc(OCCCCN2CCCCC2)cc1 (stereo not drawn) [BIGI-BIH-D2, Ethyl 1-(2-(1-benzylpiperidin-4-yl)ethyl)-6-methyl-2-oxo-4-(4-(4-(piperidin-1-yl)butoxy)phenyl)-1,2,3,4-tetrahydropyrimidine-5-carboxylate] | 0.6 ± 0.08 | 123 | 67 ± 1 | 928 ± 32 | 106000 | 13 | 
CCOC(=O)C1=C(C)N(CCC2CCN(Cc3ccccc3)CC2)C(=O)NC1c1ccc(OCCCCN2CCOCC2)cc1 (stereo not drawn) [BIGI-BIH-D3, Ethyl 1-(2-(1-benzylpiperidin-4-yl)ethyl)-6-methyl-4-(4-(4-morpholinobutoxy)phenyl)-2-oxo-1,2,3,4-tetrahydropyrimidine-5-carboxylate] | 12 ± 0.5 |  | 123 ± 2 |  | 126000 | 23 | 
CCOC(=O)C1=C(C)N(CCC2CCN(Cc3ccccc3)CC2)C(=O)NC1c1ccc(OCCCCCN2CCCC2)cc1 (stereo not drawn) [BIGI-BIH-D4, Ethyl 1-(2-(1-benzylpiperidin-4-yl)ethyl)-6-methyl-2-oxo-4-(4-((5-(pyrrolidin-1-yl)pentyl)oxy)phenyl)-1,2,3,4-tetrahydropyrimidine-5-carboxylate] | 0.5 ± 0.05 |  | 88 ± 2 | 1390 ± 66 |  | 22 | 60500
CCOC(=O)C1=C(C)N(CCC2CCN(Cc3ccccc3)CC2)C(=O)NC1c1ccc(OCCCCCN2CCCCC2)cc1 (stereo not drawn) [BIGI-BIH-D5, Ethyl 1-(2-(1-benzylpiperidin-4-yl)ethyl)-6-methyl-2-oxo-4-(4-((5-(piperidin-1-yl)pentyl)oxy)phenyl)-1,2,3,4-tetrahydropyrimidine-5-carboxylate] | 0.3 ± 0.07 |  | 67 ± 1 | 1280 ± 72 | 26300 | 34 | 
CCOC(=O)C1=C(C)N(CCC2CCN(Cc3ccccc3)CC2)C(=O)NC1c1ccc(OCCCCCN2CCOCC2)cc1 (stereo not drawn) [BIGI-BIH-D6, Ethyl 1-(2-(1-benzylpiperidin-4-yl)ethyl)-6-methyl-4-(4-((5-morpholinopentyl)oxy)phenyl)-2-oxo-1,2,3,4-tetrahydropyrimidine-5-carboxylate] | 0.6 ± 0.05 |  | 115 ± 2 |  | 56600 | 39 | 
CCOC(=O)C1=C(C)N(CCC2CCN(Cc3ccccc3)CC2)C(=O)NC1c1ccc(OCCCCCCN2CCCC2)cc1 (stereo not drawn) [BIGI-BIH-D7, Ethyl 1-(2-(1-benzylpiperidin-4-yl)ethyl)-6-methyl-2-oxo-4-(4-((6-(pyrrolidin-1-yl)hexyl)oxy)phenyl)-1,2,3,4-tetrahydropyrimidine-5-carboxylate] | 0.2 ± 0.04 |  | 89 ± 2 | 768 ± 13 | 30600 | 47 | 
CCOC(=O)C1=C(C)N(CCC2CCN(Cc3ccccc3)CC2)C(=O)NC1c1ccc(OCCCCCCN2CCCCC2)cc1 (stereo not drawn) [BIGI-BIH-D8, Ethyl 1-(2-(1-benzylpiperidin-4-yl)ethyl)-6-methyl-2-oxo-4-(4-((6-(piperidin-1-yl)hexyl)oxy)phenyl)-1,2,3,4-tetrahydropyrimidine-5-carboxylate] | 0.2 ± 0.02 |  | 86 ± 2 | 1250 ± 46 | 68200 | 60 | 
CCOC(=O)C1=C(C)N(CCC2CCN(Cc3ccccc3)CC2)C(=O)NC1c1ccc(OCCCCCCN2CCOCC2)cc1 (stereo not drawn) [BIGI-BIH-D9, Ethyl 1-(2-(1-benzylpiperidin-4-yl)ethyl)-6-methyl-4-(4-((6-morpholinohexyl)oxy)phenyl)-2-oxo-1,2,3,4-tetrahydropyrimidine-5-carboxylate] | 3 ± 0.4 |  | 115 ± 2 |  |  | 61 | 38600
COCCOC(=O)C1=C(C)NC(C)=C(C(=O)OC(C)C)C1c1cccc([N+](=O)[O-])c1 (stereo not drawn) [Nimodipine, reference compound] |  |  |  |  |  | 38 | 
